Reference: patent US11607422B2, “Uttroside B and derivatives thereof as therapeutics for hepatocellular carcinoma” (Rajiv Gandhi Centre for Biotechnology, an Autonomous …, priority 2016, dated 2023)

How the values were obtained:
[1] = tested on: MDA-MB-231; assay: MTT cell viability assay in MDA-MB-231 cells; assay type: cell-based; settings: 72 h
Experimental: (§1) FIG. 2A is a graph comparison of IC50 of Uttroside B in a panel of cancer cells of different origin. The cancer cell lines HeLa, A375, HepG2, MDA-MB-231, HL 60, A549 and HCT116 were treated with Uttroside B as indicated, incubated for 72 h and the cell viability was assessed by MTT assay. FIG. 2B is a graph showing dose dependent effect of Uttroside B in the liver cancer cell lines and in normal immortalized hepatocytes. The liver cancer cell lines HepG2, Hep3B, SKHEP-1, Huh-7 and normal hepatocytes (Chang liver), were treated with Uttroside B incubated for 72 h and the cell viability was assessed by MTT assay. FIG. 2C is a graph comparison of IC50 of Uttroside B with sorafenib. HepG2 cells were treated with Uttroside B as indicated, incubated for 72 h, and the cell viability was assessed by MTT assay. […] The clones developed were counted and plotted as a graph. Colony containing more than four cells was counted as one clone. […]
(§2) MTT [3-(4,5-dimethylthiazole-2-yl)-2,5-diphenyltetrazolium bromide] assay is a standard colorimetric assay, suitable for analyzing proliferation, viability, and cytotoxicity. […] After overnight incubation, cells were treated with different concentrations of organic extracts (25-250 μg/ml) of S. nigrum and the isolated compound Uttroside B (250-1250 nM) for 72 h and cytotoxicity was measured. […]

[2] = tested on: HL60; assay: MTT cell viability assay in HL60 cells; assay type: cell-based; settings: 72 h
Experimental: as §1, §2

[3] = tested on: caspases 8, 9 & 7 and PARP in HepG2 cells; assay: Western blot of caspase activation and PARP cleavage in HepG2 cells; assay type: cell-based, human
Experimental: FIGS. 3A-3F show Uttroside B induces caspase-dependent apoptosis leading to PARP cleavage in HepG2 cells while being independent of cell cycle. FIGS. 3A-3E are images of Western blots showing caspase activation in HepG2 cells. Whole-cell extracts were prepared after treating HepG2 cells with indicated concentrations of Uttroside B for 48 h, the whole cell lysate was resolved on a 15% gel and subjected to western blotting using antibodies against the caspases 8, 9 & 7 detected by ECL. HepG2 cells were treated with Uttroside B for 48 h at different concentrations and the whole cell lysate was resolved on a 10% gel, immunoblotted against anti-PARP and detected by ECL. […] HepG2 cells were treated with Uttroside B for 48 h, stained with propidium iodide and the cell cycle analysis was done using fluorescence activated cell sorter. Curcumin 25 μM (24 h) is used as positive control.
Western blot analysis. Approximately 0.5×10^6 cells were grown on 60 mm culture plates and exposed to drugs as indicated for the desired time. The cells were then scraped out, washed in ice cold 1× PBS and pelleted down at 13000 rpm for 2 min. The pelleted cells were suspended in 150 μL of ice-cold whole cell lysis buffer[(20 mMTris of pH 7.4, 250 mM NaCl, 2 mM EDTA, 0.1% Triton, 1 mM DTT (1,4-dithiothreitol), 0.5 mM PMSF, 4 mM sodium orthovanadate, aprotinin (5 mg m/L) and leupeptin (5 mg m/L)] and kept in ice for 30 min, with intermittent vortexing every 5 min. After incubation, the lysate was centrifuged at 13000 rpm for 10 min at 4° C. and the supernatant was collected. The total protein content in the lysate was estimated by Bradford's method, and was then denatured by boiling with 5× loading dye before separating the proteins by SDSpolyacrylamidegel electrophoresis (SDS-PAGE). Following electrophoresis, the polyacrylamide gel and a PVDF membrane were equilibrated with Towbins buffer (1 L, 25 mM Tris, 192 mM glycine, 20% (v/v) methanol (pH 8.3) for 15-30 min and the separated proteins were electro-transferred to PVDF membrane (Hybond-P, GE Healthcare Life science) using Bio-Rad Mini PROTEAN III wet blot apparatus at 100 V for 2 h at cold conditions. After the transfer, the membrane was rinsed with TBS-T (20 mM Tris pH 7.5, 150 mM NaCl, 0.1% Tween 20) buffer and stained with Ponceau-S to ensure uniform transfer. After washing off the Ponceau stain with TBST, the membrane was exposed to 5% fat free milk in TBST buffer for 1 h at room temperature to block the nonspecific binding of antibodies, followed by overnight incubation with the primary antibody [1:1000 dilution] in 3% BSA in TBST buffer at 4° C. […]

[4] = tested on: Swiss albino mice; assay: Chronic toxicity study (3 months); assay type: in vivo
Experimental: Swiss albino mice were randomly divided into 2 groups of 6 animals each and were allowed to acclimatize for a week. Group I received vehicle and Group II received 10 mg/Kg body weight of Uttroside B. The compounds were given as intraperitonial injection on alternate days, thrice in a week, for 3 months. The animals were observed frequently during this period after which, the animals were euthanized in a CO2 chamber. The blood serum was collected for analyzing biochemical parameters of liver function, the abnormal values of which are indicative of hepatotoxicity. The liver was fixed in 10% buffered formalin and the thin cryostat sections were stained with haematoxylin and eosin for histopathological evaluation.^9

[5] = HepG2, 48 h, concentration dependent

## C[C@H](CC[C@@]1(O)O[C@H]2C[C@H]3[C@@H]4CC[C@H]5C[C@@H](O[C@@H]6O[C@H](CO)[C@H](O[C@@H]7O[C@H](CO)[C@@H](O)[C@H](O[C@@H]8OC[C@@H](O)[C@H](O)[C@H]8O)[C@H]7O[C@@H]7O[C@H](CO)[C@@H](O)[C@H](O)[C@H]7O)[C@H](O)[C@H]6O)CC[C@]5(C)[C@H]4CC[C@]3(C)[C@H]2[C@@H]1C)CO[C@@H]1O[C@H](CO)[C@@H](O)[C@H](O)[C@H]1O [Uttroside B]
[1]
  IC50: 1600 nM
[2]
  IC50: 2500 nM
[3]; HepG2, 48 h
  cleavage of PARP: strong cleavage of the mother band to its daughter bands
[3]; [5]
  cleavage of procaspase 7: procaspase 7 into its active fragment (p-20) were also enhanced
  cleavage of procaspase 8: increase in the cleavage of procaspase 8 to its active fragments
[3]; HepG2, Western blot
  cleavage of procaspase 9: time-dependent and concentration-dependent increase in the cleavage of procaspase 9
[4]; 10 mg/kg
  histopathological analysis of liver tissue, chronic: did not manifest any morphological change characteristic of toxicity
[4]; 10 mg/kg i.p. thrice weekly, 3 months
  total and differential WBC count, serum AST, ALT, ALP and BUN: no significant difference in any of these parameters from their normal range of values
